Molecules are shown by their SMILES. Some results are limits rather than exact numbers.

In the first test the test system is human cardiac fibroblasts. Description: Cell-based inhibition assay of generation of procollagen I C-terminal propeptide (PICP), PICP ELISA. The conditions noted are these: Cardiac fibroblast; human cardiac fibroblasts, crowding media, 24 to 48 hr, PICP ELISA of media; read-out: pIC50, PICP cellular inhibition assay (converted). As to the method:
Cell-Based Inhibition Assay of Generation of Procollagen I C-Terminal Propeptide (PICP) and Mature Collagen:
An adaptation of the collagen deposition assay described by Chen, C. Z. C., et al., British Journal of Pharmacology, 2009, 158, 1196-1209 was used to examine effect of compounds on procollagen I processing and collagen deposition. In the adapted assay, human cardiac fibroblasts were utilized. Processing of procollagen I was determined by a PICP ELISA assay and deposition of mature collagen was determined by immunostaining.
Human cardiac fibroblasts were cultured and maintained until passage 6 in FGM-3 media (Lonza, #CC-3132) in a 37° C. humidified incubator with 5% CO2. They were then seeded in 96-well black wall, clear bottom plates at 10,000 to 15,000 cells per well in eagle's minimum essential media (EMEM, ATCC #30-2003) containing 10% fetal bovine serum (FBS, Life Technologies #10082147), 1% Glutamax (Life Technologies #35050061) and 1% Penicillin and Streptomycin (Life Technologies #15070063). These cultures were placed in 37° C. incubator. The next day, media were removed by aspiration and cells were rinsed with phosphate buffered saline. Crowding media (also called ficoll media) was prepared by adding 112.5 mg/ml of ficoll70 and 75 mg/ml ficoll400 (GE healthcare #17-0310-10 and 17-0300-10, respectively), 100 μM ascorbic acid, 1% Glutamax and 1% Penicillin and Streptomycin to EMEM media. Test compounds (dissolved in DMSO) were diluted into crowding media and then added to the cells. Final concentration of DMSO in crowding media was less than 0.3%. Cells were treated for 24 to 48 hr in a 37° C. incubator. At the end of the treatment period, cell media were collected. The level of PICP in the media were determined by a PICP ELISA assay (Quidel #8003) following the manufacturer's protocol. Potencies of test compounds were calculated by fitting PICP levels, relative to untreated controls, to log (inhibitor) vs. response equation using Graphpad Prism software 5.0 and expressed as pIC50.
(In general: An ELISA detects its analyte on a solid surface through an enzyme-linked reagent.)
On to `CCCCC[C@@H](C(=O)NCNC(=O)c1ccc(-c2cc(O)cc(OCC)c2)o1)[C@@H](CC)N(O)C=O` [Example 73, 5-(3-ethoxy-5-hydroxyphenyl)-N-(((R)-2-((R)-1-(N-hydroxyformamido)propyl)heptanamido)methyl)furan-2-carboxamide], for which the IC50 is below 3.98 µM.
Still for that read-out and setting: next, `CCCCC[C@H](CN(O)C=O)C(=O)NCNC(=O)c1ccc(-c2cccc(C(C)C(=O)O)c2)o1` (stereo partly drawn) [Example 76, 2-(3-(5-((((R)-2-((N-hydroxyformamido)methyl)heptanamido)methyl)carbamoyl)furan-2-yl)phenyl)propanoic acid]: below 3.98 µM; `CCCCC[C@H](CN(O)C=O)C(=O)NCNC(=O)c1ccc(-c2ccc(F)c(C(=O)O)c2F)o1` [Example 78]: below 3.98 µM; `CCCCC[C@@H](C(=O)NCNC(=O)c1ccc(-c2cccc(C(=O)N[C@@H](CC(=O)O)C(=O)O)c2)o1)[C@@H](CC)N(O)C=O` [Example 83, (S)-2-(3-(5-((((R)-2-((R)-1-(N-hydroxy-formamido)propyl)heptamido)methyl)carbamoyl)furan-2-yl)benzamido) succinic acid]: below 3.98 µM.
The same measure, in the same setting: next, `CCCCC[C@@H](C(=O)NCNC(=O)c1ccc(-c2cc(OCC)cc(C(=O)N[C@H](CC(=O)O)C(=O)O)c2)o1)[C@@H](CC)N(O)C=O` [Example 84, (R)-2-(3-ethoxy-5-(5-((((R)-2-((R)-1-(N-hydroxy-formamido)propyl)heptanamido)methyl)carbamoyl)furan-2-yl)benzamido) succinic acid]: below 3.98 µM; `CCCCC[C@@H](C(=O)NCNC(=O)c1ccc(-c2cc(OCC)cc(C(=O)NCC(=O)O)c2)o1)[C@@H](CC)N(O)C=O` [Example 85, 2-(3-ethoxy-5-(5-((((R)-2-((R)-1-(N-hydroxy-formamido)propyl)heptanamido)methyl)carbamoyl)furan-2-yl)benzamido) acetic acid]: below 3.98 µM.
As to `CCCCC[C@@H](C(=O)NCNC(=O)c1ccc(-c2cc(OCC)cc(C(=O)N(CC(=O)O)CC(=O)O)c2)o1)[C@@H](CC)N(O)C=O` [Example 87, 2,2′-((3-ethoxy-5-(5-((((R)-2-((R)-1-(N-hydroxy-formamido)propyl)heptanamido)methyl)carbamoyl)furan-2-yl)benzoyl)azanediyl) diacetic acid], the IC50 was below 3.98 µM.
Still for that read-out and setting: next, `CCCCC[C@@H](C(=O)NCNC(=O)c1ccc(-c2cc(OCC)cc(C(=O)NC(CO)(CO)CO)c2)o1)[C@@H](CC)N(O)C=O` [Example 88, 5-(3-((1,3-dihydroxy-2-(hydroxymethyl)propan-2-yl)carbamoyl)-5-ethoxyphenyl)-N—(((R)-2-((R)-1-(N-hydroxyformamido)propyl)heptanamido)methyl)furan-2-carboxamide]: below 3.98 µM; `CCCCC[C@H](CN(O)C=O)C(=O)NCNC(=O)c1ccc(-c2cccc(C(=O)O)c2)o1` [Example 89, (R)-3-(5-(((2-((N-hydroxyformamido)methyl)heptanamido)methyl)carbamoyl)furan-2-yl)benzoic acid]: below 3.98 µM.
Still for that read-out and setting: for `CCCCC[C@H](CN(O)C=O)C(=O)NCNC(=O)c1ccc(-c2ccc(F)c(C(=O)O)c2)o1` [Example 91, (R)-2-fluoro-5-(5-(((2-((N-hydroxy-formamido)methyl)heptanamido)methyl)carbamoyl)furan-2-yl)benzoic acid] the value was below 3.98 µM.

The same test, now with this note: Homo sapiens, Cardiac fibroblast, read-out: pIC50, PICP cellular inhibition assay (converted).
For the compound `CCCCC[C@@H](C(=O)NCNC(=O)c1ccc(-c2ccc(C(=O)O)cc2)o1)[C@@H](CC)N(O)C=O` [Example 71, 4-(5-((((R)-2-((R)-1-(N-hydroxyformamido)propyl)heptanamido)methyl)carbamoyl)furan-2-yl)benzoic acid], the IC50 was below 3.98 µM.
Regarding `CCCCC[C@@H](C(=O)NCNC(=O)c1ccc(-c2cc(CC(=O)O)cc(OCC)c2)o1)[C@@H](CC)N(O)C=O` [Example 72, 2-(3-ethoxy-5-(5-((((R)-2-((R)-1-(N-hydroxyformamido)propyl)heptanamido)methyl)carbamoyl)furan-2-yl)phenyl)acetic acid], the IC50 was below 3.98 µM.

These data come from patent US10450288B2, “Hydroxy formamide derivatives and their use” (GLAXOSMITHKLINE INTELLECTUAL PROPERTY (NO.2) LIMITED, priority 2014, dated 2019).
